Biological target: T1, Pl-GAL-8 (Paracentrotus lividus, UniProt A0A0U5C3R9)
T1 construct: gene galectin-8; tags kept; expressed in E. coli BL21(DE3)
T1 sequence (A0A0U5C3R9 1-311): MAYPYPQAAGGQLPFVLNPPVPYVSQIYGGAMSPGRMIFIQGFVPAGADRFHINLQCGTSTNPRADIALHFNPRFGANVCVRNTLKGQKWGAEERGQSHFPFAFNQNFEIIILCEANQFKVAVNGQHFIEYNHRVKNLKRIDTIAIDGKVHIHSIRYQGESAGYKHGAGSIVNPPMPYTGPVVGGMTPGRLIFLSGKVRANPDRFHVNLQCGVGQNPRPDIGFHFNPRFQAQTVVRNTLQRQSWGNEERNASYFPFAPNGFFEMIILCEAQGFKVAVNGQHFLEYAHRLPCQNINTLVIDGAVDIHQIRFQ
Assay: inhibition of hemagglutination of human red blood cells
Format: cell-based
Details: 0.25 uM protein; PBS, room temperature, 40 min; lowest dose tested (1-20 mM)

effective inhibitory concentration: 1 mM
SMILES: OC[C@H]1O[C@@H](O[C@H]2[C@H](O)[C@@H](O)C(O)O[C@@H]2CO)[C@H](O)[C@@H](O)[C@H]1O (stereo partly shown) [lactose]

Source: publication PMC4671058, “Heterologous expression of newly identified galectin-8 from sea urchin embryos produces recombinant protein with lactose binding specificity and anti-adhesive activity” (Scientific Reports, 2015)
